Assay results reported in patent US10266527B2, “T-box riboswitch-binding anti-bacterial compounds” (THE RESEARCH FOUNDATION FOR THE STATE UNIVERSITY OF NEW YORK, priority 2013, dated 2019).
In brackets after ≈: the same amount, converted by molar mass. Entries after “also recorded” stand apart in the source; their conditions may differ. Read-outs that look alike come from different tables or passages of the source.

Key:
Format in all cases: cell-based
B. subtilis BGSC 1A1 [1] = assay: Broth microdilution MIC; settings: for MIC: Bacillus subtilis, BGSC1A1, B. subtilis BGSC 1A1, 20 h at 37° C., read-out: MIC
Protocol: (§1) Broth microdilution assays^77, 78 were performed with B. subtilis, and S. aureus to determine the lowest compound concentration inhibiting visible growth, i.e., minimum inhibitory concentration (MIC) of the 4 original compounds. […] The insolubility of the fourth compound may account for its lack of antibacterial activity. […] The MICs of each compound are moderate.
(§2) Strains were grown on trypticase soy agar (TSA) with 5% sheep blood at 37° C. for 24 hours. Five isolated colonies were used to inoculate 5 mL cation-adjusted Mueller-Hinton broth (CAMHB) contained in a 50 mL centrifuge tube. The resulting culture was incubated shaking at 200 rpm for 3 hours at 37° C. and then diluted in CAMHB until its turbidity matched that of a 0.5 McFarland standard (OD625 0.08-0.10). After the culture had been standardized against a 0.5 McFarland standard, it was diluted 1:10 in CAMHB and then 5 μL of this dilution was added to the appropriate wells of a 96-well, flat-bottomed tissue culture plate in which each row contained a twofold dilution series of a particular compound ranging in concentration from 0.25 μg/mL to 512 μg/mL. Each plate also included a sterility control well containing CAMHB to which standardized inoculum was not added and a growth control well containing CAMHB to which 5 μL standardized inoculum was added. […] With the exception of the sterility control well, all wells were inoculated within 15 minutes of inoculum preparation to ensure that the starting concentration of bacteria in each well was approximately 5×10^5 CFU/m L. A Tecan Sunrise microplate absorbance reader was used to measure the OD620 of each well before and after 20 h incubation at 37° C. MIC values were recorded as the lowest compound concentration at which no visible growth was observed after this incubation period.

E. coli ATCC 25922 [2] = assay: MBC determination; settings: for MBC: Escherichia coli, ATCC25922, E. coli ATCC 25922, read-out: MBC
Protocol: (§3) Following 24 h incubation of these subcultures at 37° C., MBC values were recorded as the lowest compound concentration at which no viable colonies were observed.

B. subtilis BGSC 1A1 [3] = assay: MBC determination
Protocol: as §3

E. faecalis ATCC 29212 [4] = assay: MBC determination; settings: N/O = not observed
Protocol: as §3

B. cereus ATCC 7064 [5] = assay: MBC determination
Protocol: as §3

S. aureus ATCC 29213 [6] = assay: Broth microdilution MIC
Description: (§4) The identity and purity of both PKZ 6 and 18 was confirmed by mass spectroscopy. Forty commercially available compounds chosen on the basis of initial in silico selections and similarity to our two hits were screened by disc diffusion assay (DDA) to determine their relative antibacterial activity with S. aureus. […] These 14 compounds were further evaluated by minimum inhibitory concentration assays (MIC)^41,42, and minimum bactericidal assays (MBC)^41 to confirm antibacterial activity, determine the concentration at which S. aureus growth is inhibited in liquid culture (MIC) and if they are acting as bacteriostatic or bactericidal agents (MBC). […] Representative embodiments are shown below.
as §1, §2

E. coli ATCC 25922 [7] = assay: Broth microdilution MIC (Gram negative specificity control); settings: for antibacterial activity against E. coli (in words): E. coli negative control without T-box riboswitch
E. faecalis ATCC 29212 [8] = assay: Broth microdilution MIC
B. subtilis = assay: Disc diffusion assay, growth inhibition of B. subtilis; settings: Table 1, ✓ = zone of inhibition observed
Description: The same 20 top binders and 8 additional predicted to interact with the cleft of the tyrRS mRNA Specifier Loop were selected from subsequent docking and preliminary fluorescence data.

B. cereus ATCC 7064 [9] = assay: Broth microdilution MIC; settings: for MIC: Bacillus cereus, ATCC7064, B. cereus ATCC 7064, read-out: MIC; for growth inhibition of B. cereus (in words): at moderate concentrations
S. pneumoniae ATCC 49619 = assay: Broth microdilution MIC; settings: for MIC: Streptococcus pneumoniae, ATCC49619, S. pneumoniae ATCC 49619, read-out: MIC; for growth inhibition of S. pneumoniae (in words): at moderate concentrations
[10] = test system: Human Embryonic Kidney (HEK293) cells; assay: Toxicity on a monolayer of HEK293 cells
P. aeruginosa ATCC 27853 = assay: Broth microdilution MIC; settings: N/O = not observed
S. aureus ATCC 29213 [11] = assay: MBC determination; settings: for MBC: S. aureus ATCC 29213, N/O = not observed
Description: as §4, §3

S. aureus = assay: Disc diffusion assay (DDA) of PKZ6 and PKZ18 analogs with S. aureus; settings: Table 4, 150 μg/ml, ✓ = zone of inhibition observed
Description: as §4
All compounds were tested at a concentration of 150 μg/ml.

[12] = Bacillus cereus, ATCC7064, N/O = not observed, read-out: MBC
[13] = Staphylococcus aureus, ATCC29213, S. aureus ATCC 29213, N/O = not observed, read-out: MIC
[14] = Escherichia coli, ATCC25922, E. coli ATCC 25922, N/O = not observed, read-out: MIC
[15] = Enterococcus faecalis, ATCC29212, N/O = not observed, read-out: MIC
[16] = Table 5 analogs, triplicate experiments, N/O = not observed at concentrations tested (512-0.25 μg/mL)

SMILES | antibacterial activity against B. subtilis (in words) (B. subtilis BGSC 1A1 [1]) | MIC (B. subtilis BGSC 1A1 [1]) | antibacterial activity against E. coli (in words) (E. coli ATCC 25922 [7]) | ZOI observed (B. subtilis) | MIC (B. cereus ATCC 7064 [9]) | MIC (S. pneumoniae ATCC 49619) | 16 hr post exposure % Live ([10]; 32 ug/ml) | 16 hr post exposure Morphology ([10]; 32 ug/ml) | 24 hr post exposure % Confluent ([10]; 32 ug/ml) | 24 hr post exposure % Live ([10]; 32 ug/ml) | 16 hr post exposure % Live ([10]; 64 ug/ml) | 16 hr post exposure Morphology ([10]; 64 ug/ml) | 24 hr post exposure % Confluent ([10]; 64 ug/ml) | 24 hr post exposure % Live ([10]; 64 ug/ml) | 24 hr post exposure Morphology ([10]; 64 ug/ml) | 16 hr post exposure % Live ([10]; 128 ug/ml) | 16 hr post exposure Morphology ([10]; 128 ug/ml) | 24 hr post exposure % Confluent ([10]; 128 ug/ml) | 24 hr post exposure % Live ([10]; 128 ug/ml) | 24 hr post exposure Morphology ([10]; 128 ug/ml) | other results
O=C(NCCN1CCNCC1)c1c(O)c2cccc3c2n(c1=O)CCC3 [Compound 6] | active | 32 µg/mL (≈ 89.8 µM) | moderate antibacterial activity | ✓ | 128 µg/mL (≈ 359 µM) | 64 µg/mL (≈ 180 µM) | 100% | Normal | 50% | 70% | 60% | Mix of Normal and Detached | 15% | 25% | Mix of Normal and Detached | 0% | Rounded and Detached | 0% | 0% | Rounded and Detached | antibacterial activity against B. subtilis (in words) (B. subtilis BGSC 1A1 [1]; listed as PKZ 6): inhibited growth; MBC (E. coli ATCC 25922 [2]): 256 µg/mL (≈ 718 µM); MBC (B. subtilis BGSC 1A1 [3]; IND = indeterminate): IND; MBC (E. faecalis ATCC 29212 [4]): N/O; MBC (B. cereus ATCC 7064 [5]; [12]): 256 µg/mL (≈ 718 µM); antibacterial activity against S. aureus (in words) (S. aureus ATCC 29213 [6]): displayed antibacterial properties; MIC (S. aureus ATCC 29213 [6]; [13]): 256 µg/mL (≈ 718 µM); antibacterial activity against S. aureus (in words) (S. aureus ATCC 29213 [6]; listed as PKZ 6): inhibited growth; MIC (E. coli ATCC 25922 [7]; [14]): 256 µg/mL (≈ 718 µM); MIC (E. faecalis ATCC 29212 [8]; [15]): 128 µg/mL (≈ 359 µM); growth inhibition of B. cereus (in words) (B. cereus ATCC 7064 [9]): inhibited growth; growth inhibition of S. pneumoniae (in words) (S. pneumoniae ATCC 49619): inhibited growth; MIC (P. aeruginosa ATCC 27853): N/O (N/D); MBC (S. aureus ATCC 29213 [11]): N/O
CCn1c(=O)c(C(=O)NCCN2CCNCC2)c(O)c2ccccc21 [Compound 7] | active | 32 µg/mL (≈ 92.9 µM) | moderate antibacterial activity | ✓ | 512 µg/mL (≈ 1490 µM) | 128 µg/mL (≈ 372 µM) | 100% | Normal | 90% | 90% | 80% | Mix of Normal and Detached | 80% | 75% | Mix of Normal and Detached | 0% | Rounded and Detached | 0% | 0% | Rounded and Detached | MBC (E. coli ATCC 25922 [2]): 512 µg/mL (≈ 1490 µM); MBC (B. subtilis BGSC 1A1 [3]; IND = indeterminate): IND; MBC (E. faecalis ATCC 29212 [4]): N/O; MBC (B. cereus ATCC 7064 [5]; N/O = not observed): N/O; MIC (S. aureus ATCC 29213 [6]; S. aureus ATCC 29213, N/O = not observed): N/O (N/D); MIC (E. coli ATCC 25922 [7]; [14]): 512 µg/mL (≈ 1490 µM); MIC (E. faecalis ATCC 29212 [8]; [15]): 512 µg/mL (≈ 1490 µM); 24 hr post exposure Morphology ([10]; 32 ug/ml): Normal; MIC (P. aeruginosa ATCC 27853): N/O (N/D)
Cc1sc(NC(=O)C2C3CCC(C3)C2C(=O)O)nc1-c1ccc(C(C)C)cc1 (stereo not drawn) [Compound 18] | inhibited growth; also recorded: active | 64 µg/mL (≈ 161 µM) | did not inhibit growth | ✓ | 64 µg/mL (≈ 161 µM) | 64 µg/mL (≈ 161 µM) | 100% | Normal | 90% | 100% | 100% | Normal | 90% | 90% | Mix of Normal and Detached | 100% | Normal | 15% | 15% | Rounded and Detached | MBC (B. subtilis BGSC 1A1 [3]; Bacillus subtilis, BGSC1A1, IND = indeterminate, read-out: MBC): 64 µg/mL (≈ 161 µM); MBC (B. cereus ATCC 7064 [5]; [12]): 64 µg/mL (≈ 161 µM); antibacterial activity against S. aureus (in words) (S. aureus ATCC 29213 [6]): inhibited growth; also recorded: displayed antibacterial properties; MIC (S. aureus ATCC 29213 [6]; [13]): 64 µg/mL (≈ 161 µM); MIC (E. coli ATCC 25922 [7]; E. coli ATCC 25922, N/O = not observed): N/O (N/D); MIC (E. faecalis ATCC 29212 [8]; N/O = not observed): N/O (N/D); growth inhibition of B. cereus (in words) (B. cereus ATCC 7064 [9]): inhibited growth; growth inhibition of S. pneumoniae (in words) (S. pneumoniae ATCC 49619): inhibited growth; 24 hr post exposure Morphology ([10]; 32 ug/ml): Normal; MIC (P. aeruginosa ATCC 27853): N/O (N/D); MBC (S. aureus ATCC 29213 [11]): N/O
CC(C)CCNC(=O)c1c(O)n2c3c(cccc3c1=O)CCC2 [Compound 0603] |  |  |  |  |  |  |  |  |  |  |  |  |  |  |  |  |  |  |  |  | E. coli (MBC) (E. coli ATCC 25922 [2]; [16]): N/O; MIC (S. aureus ATCC 29213 [6]; Staphylococcus aureus, ATCC29213, Table 5 analogs, triplicate experiments, N/O = not observed at concentrations tested (512-0.25 μg/mL), read-out: S. aureus MIC): 512 µg/mL (≈ 1630 µM); ZOI observed (S. aureus): ✓; MIC (E. coli ATCC 25922 [7]; Escherichia coli, ATCC25922, Table 5 analogs, triplicate experiments, N/O = not observed at concentrations tested (512-0.25 μg/mL), read-out: E. coli MIC): 512 µg/mL (≈ 1630 µM); S. aureus (MBC) (S. aureus ATCC 29213 [11]; [16]): N/O
